# Reference: article PMC8583936, “Machine Learning Assisted Approach for Finding Novel High Activity Agonists of Human Ectopic Olfactory Receptors” (International Journal of Molecular Sciences, 2021)
# pEC50: −log10 of the molar value. Values joined by “and” are separate entries in the source; they are usually repeats but may differ in a detail not shown here. Identical values can stand only once.
# Columns and labels:
# [1] = biological target: T1, OR2W1 (Homo sapiens, UniProt Q9Y3N9); test: Dual-Glo luciferase reporter gene assay, OR2W1 in Hana3A cells; format: cell-based; design: The open reading frames of ORs were amplified using Phusion polymerase; Rho-tag (first 20 amino acids of human rhodopsin) (N); expressed in transfected cells; host or cells: Hana3A cells (derived from HEK293T), pCI vector; co-transfected with human RTP1S, M3 receptor, CRE-Luc and SV40-RL; settings: for Bottom / Top: log(agonist) vs. response (three parameters), normalized (L-400/R-400); for normilazed value = (L-400/R-400): three replicates
# T1 sequence (Q9Y3N9 1-320): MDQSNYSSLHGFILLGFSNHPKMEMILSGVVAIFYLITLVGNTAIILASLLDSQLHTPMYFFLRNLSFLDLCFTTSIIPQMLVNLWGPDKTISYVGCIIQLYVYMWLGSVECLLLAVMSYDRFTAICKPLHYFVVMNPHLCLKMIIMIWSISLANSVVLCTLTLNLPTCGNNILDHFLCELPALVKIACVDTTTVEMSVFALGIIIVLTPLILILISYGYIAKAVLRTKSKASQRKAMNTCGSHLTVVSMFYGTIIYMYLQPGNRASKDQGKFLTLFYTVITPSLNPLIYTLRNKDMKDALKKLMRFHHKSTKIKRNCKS
# Description: (§1) Hana3A cells were maintained in minimal essential medium containing 10% FBS (vol/vol) with penicillin-streptomycin and amphotericin B (1/200 each vol/vol) at 37 °C and 5% CO2. Hana3A cells are derived from HEK293T [57] and are optimized for OR studies as shown in several studies, compared to earlier OR expression in Sf9 insect cells in Gat et al., and in Xenopus oocytes, COS-7, PC12h and CHO-K1 cells in Katada et al..
# (§2) The Dual-Glo luciferase assay system (Promega, Madison, WI, USA) was used to evaluate the functionality of wild-type OR1A1 and OR2W1 in an in vitro system. The open reading frames of ORs were amplified using Phusion polymerase (Thermo Fisher Scientific, Waltham, MA, USA). Amplified fragments were cloned into pCI expression vector (Promega, Madison, WI, USA) containing the sequence encoding the first 20 amino acids of human rhodopsin (Rho-tag) at N-terminal. Hana3A cells have been cultured and plated the day before transfection with 6 mL at 1/10 of a 100% confluence 100 mm plate into 96-well plates coated with poly D-lysine. After overnight incubation, the required genes were transfected using, for each plate, 5 ng SV40-RL, 10 ng CRE-Luc, 5 ng human RTP1S [72], 2.5 ng M3 receptor [73] and 5 ng of receptor (OR1A1, OR2W1 or empty vector Rho-pCI) plasmid. After around 18 h of transfection, cells were stimulated during 3.5 h by 25 µL of odorant diluted in CD293 + 1% glutamine + 30 µM CuCl2. Odorants were obtained from Sigma Aldrich (St. Louis, MO, USA) and diluted at 1 M concentration in DMSO as stock solutions. […] The luminescence of Firefly (Luc) and Renilla (Rluc) luciferase, were then sequentially monitored by injecting the corresponding substrate following the supplier’s protocol. The activity in each well was normalized as (Luc-400)/(Rluc-400). The response of the receptor was also normalized to its basal activity as (NLX/NL0)-1 where NL0 is the normalized luminescence value at 0 µM of odorant and NLX the value at X µM. […] Raw results were first analyzed with Excel (Microsoft Corporation, Albuquerque, NM, USA) and dose response curves, max efficacy and EC50 have been determined with GraphPrism 6 software (GraphPad Software, La Jolla, CA, USA). Areas under the curves (AUC) were calculated in Excel by summing all the OR responses at different concentrations for each odorant.
# [2] = biological target: T1, OR2W1; settings: cited from earlier work
# [3] = biological target: T2, OR1A1 (Homo sapiens, UniProt Q9P1Q5); settings: cited from earlier work
# T2 sequence (Q9P1Q5 1-309): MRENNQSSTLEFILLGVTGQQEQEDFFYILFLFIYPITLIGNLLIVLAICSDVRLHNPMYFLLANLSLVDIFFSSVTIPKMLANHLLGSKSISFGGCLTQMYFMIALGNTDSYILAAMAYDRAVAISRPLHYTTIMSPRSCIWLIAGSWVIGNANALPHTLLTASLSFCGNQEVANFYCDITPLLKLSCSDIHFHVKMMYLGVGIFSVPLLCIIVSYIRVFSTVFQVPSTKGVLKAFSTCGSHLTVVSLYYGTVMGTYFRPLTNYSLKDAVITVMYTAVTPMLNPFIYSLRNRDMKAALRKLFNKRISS
# [4] = biological target: T2, OR1A1; test: Dual-Glo luciferase reporter gene assay, OR1A1 in Hana3A cells; format: cell-based; design: The open reading frames of ORs were amplified using Phusion polymerase; Rho-tag (first 20 amino acids of human rhodopsin) (N); expressed in transfected cells; host or cells: Hana3A cells (derived from HEK293T), pCI vector; co-transfected with human RTP1S, M3 receptor, CRE-Luc and SV40-RL; settings: OR1A1; for normilazed value = (L-400/R-400): three replicates
# Description: as §1, §2
# [5] = OR2W1, 95% CI (profile likelihood)
# [6] = OR2W1, log[molecule], M = -3.75
# [7] = OR2W1, log[molecule], M = -4.25
# [8] = OR2W1, log[molecule], M = -4.75
# [9] = OR2W1, log[molecule], M = -5.25
# [10] = log(agonist) vs. response (three parameters), 95% CI (profile likelihood), normalized (L-400/R-400)
Structure (SMILES),"Bottom [1, 5]","Top [1, 5]","normilazed value = (L-400/R-400) ([1]; OR2W1, log[molecule], M = -3.5)","normilazed value = (L-400/R-400) [1, 6]","normilazed value = (L-400/R-400) ([1]; OR2W1, log[molecule], M = -4)","normilazed value = (L-400/R-400) [1, 7]","normilazed value = (L-400/R-400) ([1]; OR2W1, log[molecule], M = -4.5)","normilazed value = (L-400/R-400) [1, 8]","normilazed value = (L-400/R-400) ([1]; OR2W1, log[molecule], M = -5)","normilazed value = (L-400/R-400) [1, 9]","normilazed value = (L-400/R-400) ([1]; OR2W1, log[molecule], M = -5.5)","normilazed value = (L-400/R-400) ([1]; OR2W1, log[molecule], M = -6)",also measured
CCOc1ccc2ccccc2c1 [2-Ethoxynaphthalene],9.687 to 19.33,32.32 to 36.67,30.4896 and 23.1676 and 21.7127,33.5459 and 34.0167 and 35.7983,29.5332 and 32.1424 and 36.1752,38.6596 and 38.9119 and 38.3122,28.5017 and 40.4493 and 38.4842,39.1645 and 34.3635 and 36.5051,30.1654 and 33.9031 and 33.7738,31.8777 and 31.6329 and 33.9788,30.0044 and 26.9494 and 25.4775,23.2783 and 19.1056 and 20.6534,"activation of OR2W1 in dose-responses ([1]; Figure 4B): activated OR2W1 in a dose-response manner; potency relative to the strongest OR2W1 agonist of Bushdid et al. ([1]; OR2W1, comparison with ref 14): two times more potent; normilazed value = (L-400/R-400) ([1]; OR2W1, log[molecule], M = -5.75): 22.1602 and 26.5902 and 25.5852; pEC50 ([1]; OR2W1, three-parameter fit, 95% CI (profile likelihood)): 5.52 to 6.18; LogEC50 ([1]; OR2W1, three-parameter fit, 95% CI (profile likelihood), log[molecule], M): -6.181 to -5.515"
O=C(c1ccccc1)c1ccccc1 [Benzophenone],9.831 to 25.58,33.11 to 38.76,18.7324 and 22.6176 and 22.52,27.3072 and 27.4246,38.4836,38.5091 and 37.4777,37.1848 and 47.4935,39.8168 and 41.5774 and 37.3522,38.9191 and 40.737 and 39.7699,38.6807 and 38.6347 and 47.5267,41.7726 and 40.3216 and 44.1867,27.5667 and 27.048,"Class (agonist / non-agonist / antagonist / conflicting info.) for OR2W1 [2]: agonist; Class (agonist / non-agonist / conflicting info.) for OR1A1 [3]: agonist; Bottom [4, 10]: -1.851 to 2.543; Top [4, 10]: 11.67 to 14.46; normilazed value = (L-400/R-400) ([4]; log[molecule], M = -3.5): 7.459 and 7.533 and 8.1639; normilazed value = (L-400/R-400) ([4]; log[molecule], M = -3.75): 11.5068 and 9.986 and 11.6353; normilazed value = (L-400/R-400) ([4]; log[molecule], M = -4): 12.912 and 14.5062 and 13.7456; normilazed value = (L-400/R-400) ([4]; log[molecule], M = -4.25): 14.2415 and 16.6502 and 17.5965; normilazed value = (L-400/R-400) ([4]; log[molecule], M = -4.5): 12.7776 and 13.5787 and 13.5772; normilazed value = (L-400/R-400) ([4]; log[molecule], M = -4.75): 11.0413 and 12.4085 and 13.0495; normilazed value = (L-400/R-400) ([4]; log[molecule], M = -5): 8.171 and 9.262 and 9.035; normilazed value = (L-400/R-400) ([4]; log[molecule], M = -5.25): 6.73 and 6.359 and 7.725; normilazed value = (L-400/R-400) ([4]; log[molecule], M = -5.5): 4.815 and 4.814 and 5.195; normilazed value = (L-400/R-400) ([4]; log[molecule], M = -5.75): 3.111 and 2.689 and 2.548; normilazed value = (L-400/R-400) ([4]; log[molecule], M = -6): 2.109 and 2.273 and 2.067; pEC50 ([4]; three-parameter fit, 95% CI (profile likelihood)): 5.08 to 5.61; LogEC50 ([4]; three-parameter fit, 95% CI (profile likelihood), log[molecule], M): -5.608 to -5.081"
